According to patent US20250129123A1, “BIOMIMETIC PEPTIDES AND THEIR USE IN BONE REGENERATION” (SILK BIOMATERIALS S.R.L., priority 2021, published 2025):
Ends that are not written are not given here.

Columns and labels:
[1] = system: human mesenchymal stem cells (MSCs); assay: Mineralization test (von Kossa staining) of fibroin foams incubated with human mesenchymal stem cells; type: cell-based; conditions: presence of MSC (+MSC), complete medium, 7 days, decellularized foams
Method: (§1) Human mesenchymal stem cells (MSCs) were purchased from Lonza and cultured in Dulbecco's Modified Eagle's Medium (DMEM), supplemented with 10% MSC Stimulatory Supplement, 100 U/mL penicillin-streptomycin and non-essential amino acids at 37° C. in a fully humidified atmosphere at 5% CO2. The fibroin foams were placed in a 96-well plate, immersed in 70% ethanol for 30 minutes, washed in phosphate buffered saline (PBS) three times, immersed in 100 U/mL penicillin-streptomycin overnight and washed three times in PBS. MSC (10^4/50 μL) were seeded by pipetting onto different points of the foam to improve the distribution of the cells within the foam and allowed to adhere for 30 minutes. Subsequently, 150 μL of complete medium were added to each well. As a negative control, the fibroin foams were kept in the complete cell-free medium. The medium was changed every two days.
(§2) The foams were washed twice with PBS (not containing magnesium/calcium ions) before cell lysis and protein extraction. Cell lysis was performed using the HEPES buffer (50 mM HEPES, pH 7.4, 150 mM NaCl, 10% (v/v) glycerol, 1% (v/v) Triton X-100, 1.5 mM MgCl2, 1 mM EGTA) containing 100 mM NaF, 1 mM NaVO4, 1 μg/mL leupeptin, and 1 μg/mL aprotinin. After 30 minutes on ice, the extracts were centrifuged for 10 minutes at 13,000 g as cell lysate and stored at −20° C. The remaining deposited matrix was washed twice with PBS (not containing magnesium/calcium ions). To fix the matrix on the fibroin foams […] was added in ultrapure water at room temperature for 10 minutes and then two washes with ultrapure water were performed. […]
(§3) The human mesenchymal stem cells (MSCs) were cultured for 7 days in the fibroin foams functionalized with the biomimetic peptides, using a non-functionalized fibroin foam as a reference. […] The extent of calcium deposit was studied by means of von Kossa staining and quantified by image analysis with ImageJ software. […] The threshold was adjusted manually, and the percentage area covered by the signal above the threshold was measured.

[2] = Mineralization test (von Kossa staining) of fibroin foams in complete medium in the absence of cells; conditions: absence of MSC (NO MSC), 7 days
Method: as §1, §2, §3

[3] = SEM/EDX chemical characterization of fibroin foams incubated in SBF; conditions: fibroin foam functionalized with peptide, 14 days, aggregates "Object 10437"
Method: […]
The fibroin foam samples were analysed in SEM/EDX in order to morphologically and compositionally identify the mineral formations constituted by calcium and phosphate salts.

Row | Sequence | amount of deposited calcium (percentage area covered by von Kossa staining) versus non-functionalized foam [1] | amount of deposited calcium (percentage area covered by von Kossa staining) versus non-functionalized foam [2] | chemical composition of the crystalline aggregates (SEM/EDX) [3]
1 | GPYVAHGGYSGYEY | always higher | always higher | –
2 | SGYEYAWSSESDF | always higher | always higher | –
3 | VNGGYSGYEYAW | always higher | always higher | intense signals of calcium (Ca) and phosphorus (P)
